Values quoted from earlier work as cited in patent US20130203858A1, “Fast-Dissolving Solid Pharmaceutical Form for Treating Bacterial Infections” (Nanocore Biotecnologia S.A., priority 2010, published 2013).

Tests used:
[1] = WO2009/061780 composition in the absence of PVP

solubility in water: about 1.2 mg/mL
portion of the drug that solubilises in water (without addition of surfactants): about 20%
portion of the drug solubilized in water [1]: about 40%
SMILES: CS(=O)(=O)c1ccc([C@@H](O)[C@@H](CF)NC(=O)C(Cl)Cl)cc1 [florfenicol, Florfenicol]
